# According to US11608335B2, “Somatostatin modulators and uses thereof” (CRINETICS PHARMACEUTICALS, INC., priority 2018, dated 2023):
# Where two headings read alike, the source gives them in different places.
# Columns and labels:
# [1] = molecular target: human somatostatin receptor subtype 5 (Homo sapiens, UniProt P35346); assay: cAMP assay for SST5R (inhibition of cAMP via human SST5 receptor)
# Method: cAMP Assay Protocol for SST5R:
# The cells are cultured at 37° C., 5% CO2 and 95% humidity. […] The cells are incubated for 20 minutes at 37° C. […] The cells are treated with 50 μL of lysis buffer (HRTF cAMP kit, Cisbio) for 30 minutes and then the lysate is diluted to 250 μL with assay buffer. The lysate is transferred to 384-well plates and cAMP detection and visualization antibodies are added and incubated for 1-24 hours at room temperature. The time-resolved fluorescent signal is read with a Tecan M1000Pro multiplate reader. The intracellular cAMP concentrations are calculated by regression to a standard curve and are plotted vs. the concentration of the compounds of the invention and the EC50 of the compounds are calculated using standard methods. All data manipulations are in GraphPad Prism v6 or v7.
# [2] = molecular target: T1, human somatostatin receptor subtype 2 (Homo sapiens, UniProt P30874); assay: cAMP assay for SST2R (inhibition of cAMP via human SST2 receptor); type: cell-based; conditions: Table B, read-out: SST2 potency
# T1 construct: expressed in transfected cells
# Source text: cAMP Assay Protocol for SST2R:
# [3] = read-out: SST5 potency, inhibition of cAMP via human SST5 receptor, Table B
# T1 sequence (P30874 whole entry): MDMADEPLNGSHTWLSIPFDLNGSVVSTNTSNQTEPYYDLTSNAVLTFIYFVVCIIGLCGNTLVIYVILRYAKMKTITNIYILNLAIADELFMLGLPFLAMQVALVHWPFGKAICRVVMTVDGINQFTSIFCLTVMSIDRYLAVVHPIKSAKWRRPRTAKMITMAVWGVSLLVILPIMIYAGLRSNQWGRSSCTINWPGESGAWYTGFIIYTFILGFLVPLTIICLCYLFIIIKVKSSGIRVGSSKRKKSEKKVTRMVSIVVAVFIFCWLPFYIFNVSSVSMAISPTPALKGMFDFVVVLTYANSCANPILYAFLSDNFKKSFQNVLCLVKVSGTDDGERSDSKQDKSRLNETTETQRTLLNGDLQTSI
# Chain of human somatostatin receptor subtype 5 (P35346 whole entry): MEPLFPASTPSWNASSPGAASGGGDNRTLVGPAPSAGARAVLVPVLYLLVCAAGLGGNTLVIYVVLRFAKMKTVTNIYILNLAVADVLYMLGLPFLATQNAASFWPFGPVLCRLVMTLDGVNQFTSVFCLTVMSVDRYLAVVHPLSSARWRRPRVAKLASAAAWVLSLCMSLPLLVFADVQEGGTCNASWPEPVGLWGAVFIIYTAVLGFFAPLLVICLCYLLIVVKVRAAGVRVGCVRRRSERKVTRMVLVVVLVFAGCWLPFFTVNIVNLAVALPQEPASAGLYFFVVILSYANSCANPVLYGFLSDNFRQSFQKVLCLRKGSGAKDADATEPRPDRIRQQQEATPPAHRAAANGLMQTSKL
EC50 [1],"Fold selectivity for SST5 vs SST2 ([1]; SST5 over SST2, class symbols)","EC50 [1, 3]",EC50 [2],"Fold selectivity for SST5 vs SST2 ([1]; SST5 over SST2, given as number (comparison compounds))",Structure (SMILES)
< 10 nM,+++ (+++=≥500),< 10 nM,> 1000 nM,,"CC1(N)CCN(c2c(-c3cccc(C(N)=O)c3)cncc2-c2nc3c(F)cccc3[nH]2)C1 (stereo not shown) [Compound 2-18, 3-[4-(3-amino-3-methylpyrrolidin-1-yl)-5-(4-fluoro-1H-1,3-benzodiazol-2-yl)pyridin-3-yl]benzamide]"
< 10 nM,+++ (+++=≥500),< 10 nM,> 1000 nM,,"CC(N)C1(C)CN(c2c(-c3cccc(C#N)c3)cncc2-c2nc3cc(F)cc(F)c3[nH]2)C1 (stereo not shown) [Compound 1-70, 3-{4-[3-(1-aminoethyl)-3-methylazetidin-1-yl]-5-(4,6-difluoro-1H-1,3-benzodiazol-2-yl)pyridin-3-yl}benzonitrile]"
10 to 100 nM,++ (++=100 to 499),10 to 100 nM,> 1000 nM,,"Cc1cc(-c2cncc(-c3nc4c(F)cccc4[nH]3)c2N2CC[C@H](N)C2)ccn1 [Compound 2-181, (3S)-1-[5-(4-fluoro-1H-1,3-benzodiazol-2-yl)-2′-methyl-[3,4′-bipyridin]-4-yl]pyrrolidin-3-amine]"
< 10 nM,++ (++=100 to 499),< 10 nM,100 to 1000 nM,,"CC1(N)CCN(c2c(-c3cc(F)cc(OCC#N)c3)cncc2-c2nc3cccc(F)c3[nH]2)C1 (stereo not shown) [Compound 2-27, 2-{3-[4-(3-amino-3-methylpyrrolidin-1-yl)-5-(4-fluoro-1H-1,3-benzodiazol-2-yl)pyridin-3-yl]-5-fluorophenoxy}acetonitrile]"
< 10 nM,+++ (+++=≥500),< 10 nM,> 1000 nM,,"C[C@]1(N)CCN(c2c(-c3ccc(F)c(C#N)c3)cncc2-c2nc3ncccc3[nH]2)C1 [Compound 2-167, 5-{4-[(3S)-3-amino-3-methylpyrrolidin-1-yl]-5-{1H-imidazo[4,5-b]pyridin-2-yl}pyridin-3-yl}-2-fluorobenzonitrile]"
,+++ (+++=≥500),< 10 nM,> 1000 nM,,"CC(N)C1CN(c2c(-c3cc(F)cc(C(F)(F)F)c3)cncc2-c2nc3cc(F)cc(F)c3[nH]2)C1 (stereo not shown) [Compound 1-71, 1-{1-[3-(4,6-difluoro-1H-1,3-benzodiazol-2-yl)-5-[3-fluoro-5-(trifluoromethyl)phenyl]pyridin-4-yl]azetidin-3-yl}ethan-1-amine]"
< 10 nM,+++ (+++=≥500),< 10 nM,> 1000 nM,,"Cc1cc(F)cc(-c2cncc(-c3nc4cccc(C)c4[nH]3)c2N2CC(CN)C2)c1 [Compound 1-9, 1-{1-[3-(3-fluoro-5-methylphenyl)-5-(4-methyl-1H-1,3-benzodiazol-2-yl)pyridin-4-yl]azetidin-3-yl}methanamine]"
< 10 nM,+++ (+++=≥500),< 10 nM,> 1000 nM,,"Cc1cnc2nc(-c3cncc(-c4ccc(F)c(C#N)c4)c3N3CC[C@](C)(N)C3)[nH]c2c1 [Compound 2-170, 5-{4-[(3S)-3-amino-3-methylpyrrolidin-1-yl]-5-{6-methyl-1H-imidazo[4,5-b]pyridin-2-yl}pyridin-3-yl}-2-fluorobenzonitrile]"
< 10 nM,+++ (+++=≥500),< 10 nM,100 to 1000 nM,,"CCn1c(-c2cncc(-c3cccc(C#N)c3)c2N2CC[C@H](N)C2)nc2c(F)cccc21 [Compound 2-143, 3-{4-[(3S)-3-aminopyrrolidin-1-yl]-5-(1-ethyl-4-fluoro-1H-1,3-benzodiazol-2-yl)pyridin-3-yl}benzonitrile]"
< 10 nM,+++ (+++=≥500),< 10 nM,100 to 1000 nM,,"N#Cc1cccc(-c2cncc(-c3nc4cccc(Br)c4[nH]3)c2N2CC[C@H](N)C2)c1 [Compound 2-57, 3-{4-[(3S)-3-aminopyrrolidin-1-yl]-5-(4-bromo-1H-1,3-benzodiazol-2-yl)pyridin-3-yl}benzonitrile]"
< 10 nM,++ (++=100 to 499),< 10 nM,100 to 1000 nM,,"N#Cc1cc(-c2cncc(-c3nc4cccc(F)c4[nH]3)c2N2CC[C@H](N)C2)ccc1Cl [Compound 2-39, 5-{4-[(3S)-3-aminopyrrolidin-1-yl]-5-(4-fluoro-1H-1,3-benzodiazol-2-yl)pyridin-3-yl}-2-chlorobenzonitrile]"
< 10 nM,++ (++=100 to 499),< 10 nM,100 to 1000 nM,,"Cc1cncc2nc(-c3cncc(-c4ccc(F)c(C#N)c4)c3N3CCC(C)(N)C3)[nH]c12 (stereo not shown) [Compound 2-149, 5-[4-(3-amino-3-methylpyrrolidin-1-yl)-5-{7-methyl-3H-imidazo[4,5-c]pyridin-2-yl}pyridin-3-yl]-2-fluorobenzonitrile]"
< 10 nM,++ (++=100 to 499),< 10 nM,100 to 1000 nM,,"Cc1cc(F)cc2nc(-c3cncc(-c4cc(F)cc(C#N)c4)c3N3CC[C@H](N)C3)[nH]c12 [Compound 2-79, 3-{4-[(3S)-3-aminopyrrolidin-1-yl]-5-(6-fluoro-4-methyl-1H-1,3-benzodiazol-2-yl)pyridin-3-yl}-5-fluorobenzonitrile]"
< 10 nM,++ (++=100 to 499),< 10 nM,10 to 100 nM,,"Cc1cccc2nc(-c3cncc(-c4cc(F)c(F)c(C#N)c4)c3N3CC[C@H](N)C3)[nH]c12 [Compound 2-139, 5-{4-[(3S)-3-aminopyrrolidin-1-yl]-5-(4-methyl-1H-1,3-benzodiazol-2-yl)pyridin-3-yl}-2,3-difluorobenzonitrile]"
< 10 nM,++ (++=100 to 499),< 10 nM,100 to 1000 nM,,"CC1(N)CCN(c2c(-c3ccc4c(c3)OCC4)cncc2-c2nc3cccc(F)c3[nH]2)C1 (stereo not shown) [Compound 2-22, 1-[3-(2,3-dihydro-1-benzofuran-6-yl)-5-(4-fluoro-1H-1,3-benzodiazol-2-yl)pyridin-4-yl]-3-methylpyrrolidin-3-amine]"
10 to 100 nM,+++ (+++=≥500),10 to 100 nM,> 1000 nM,,"Cn1c(-c2cncc(-c3ccc(F)c(C#N)c3)c2N2CC[C@H](N)C2)nc2c(Cl)cccc21 [Compound 2-131, 5-{4-[(3S)-3-aminopyrrolidin-1-yl]-5-(4-chloro-1-methyl-1H-1,3-benzodiazol-2-yl)pyridin-3-yl}-2-fluorobenzonitrile]"
100 to 1000 nM,,,< 10 nM,0.0008,Cc1cc(F)cc(-c2cncc(-c3nc4cccc(Cl)c4[nH]3)c2N2CCC(N)CC2)c1
< 10 nM,++ (++=100 to 499),< 10 nM,100 to 1000 nM,,"Cc1cccc2nc(-c3cncc(-c4ccc(F)c(OC(F)(F)F)c4)c3N3CC[C@H](N)C3)[nH]c12 [Compound 2-141, (3S)-1-{3-[4-fluoro-3-(trifluoromethoxy)phenyl]-5-(4-methyl-1H-1,3-benzodiazol-2-yl)pyridin-4-yl}pyrrolidin-3-amine]"
